From patent US12433871B2, “Effects of age-dependent changes in cell size on endothelial cell growth” (The Medical College of Wisconsin, Inc., priority 2019, dated 2025) come the findings set out here.

For test [1], the target named is T1, CDC42 (Homo sapiens, UniProt P60953).
T1 construct: endogenous in cells; host or cells: primary endothelial cells isolated from >50 y.o. human adipose tissue
The test can be described thus: GTP-CDC42 levels by immunofluorescence in aged human adipose ECs treated with ML141. In kind it is cell-based. Particulars: ECs from >50 y.o. human adipose tissues, ML141 500 nM. The text has this:
(§1) FIGS. 3A-3F show CDC42-YAP1 mediates cell size-dependent changes in EC senescence in aged ECs. (FIG. 3A) Representative immunoblots showing YAP1, YAP1S127 phosphorylation, and β-actin protein levels in ECs isolated from >50 y.o. human adipose tissues treated with retrovirus overexpressing full-length YAP1 or YAP1S127A (left). Graph showing the quantification of immunoblots (right, n=3, *, p<0.05). (FIG. 3B) IF micrographs showing P16^INK4A expression and DAPI in ECs isolated from >50 y.o. human adipose tissues treated with retrovirus overexpressing full-length YAP1 or YAP1S127A, cultured on FN-coated island of different sizes. Scale bar, 10 (FIG. 3C) Graph showing quantification of P16^INK4A integrated density (n=7, mean±s.e.m., *, p<0.05). […] Graph showing quantification of GTP-CDC42 integrated density (n=7, mean±s.e.m., *, p<0.05). […] Graph showing the quantification of immunoblots (bottom, n=3, *, p<0.05). […] Scale bar, Graphs showing quantification of P16^INK4A integrated density (bottom left) and nuclear YAP1 (bottom right) (n=7, mean±s.e.m., *, p<0.05).
(§2) In an in vitro cell culture study human adipose endothelial cells were treated with ML141 (500 nM with DMSO). […] One week later, the gel was removed and analyzed blood vessel formation using immunohistochemical analysis.

In test [2] the test system is YAP1. Kind of test: YAP1 nuclear localization in aged ECs cultured on FN-coated microcontact-printed islands. In kind it is cell-based, human. The settings on record: aged ECs on the large island (2500 μm2), ML141 500 nM, compared to those without ML141 treatment. As to the method:
To directly analyze whether EC size controls YAP1 activity, we prepared microcontact-printed substrates consisting of square FN-coated islands (600-2500 μm2) surrounded by non-adhesive regions, in which we directly stamped FN (50 μg/ml) onto activated polydimethylsiloxane-coated cover slips and blocked unstamped areas with Pluronic F-127 [49, 50]. […] In contrast, when we cultured 24M old mouse lung ECs on the large islands, YAP1 was excluded from the nucleus, while YAP1 was in the nucleus on the medium size islands (FIGS. 6D and 6E).
(§3) In an in vitro cell culture study human adipose endothelial cells were treated with ML141 (500 nM with DMSO). In an in vivo mouse study hydrogel mixed with young or aged human endothelial cells or in combination with ML141 (500 nM with DMSO) was implanted on the back of the immunocompromised mouse. One week later, the gel was removed and analyzed blood vessel formation using immunohistochemical analysis.
Microcontact printing system—Stamps were created using soft lithography as described previously. Polydimethylsiloxane (PDMS) stamps were made by casting the polymer against master molds made by standard photolithography using the negative photoresist SU-8 (MicroChem). Substrates for stamping were fabricated by spin-coating a thin layer of PDMS (Sylgard-184, Dow Corning) onto glass coverslips. […]

In test [3] the test system is ECs isolated from >50 y.o. human adipose tissues. Kind of test: EC senescence (p16INK4A staining) in aged ECs cultured on FN-coated microcontact-printed islands. It counts as cell-based. The settings on record: aged ECs on the large island (2500 μm2), ML141 500 nM, compared to those without ML141 treatment. Here is the method:
as §3
EC proliferation was analyzed by a BrdU incorporation assay or a Click-iT® Plus EdU Proliferation Assay. Mouse lung and human adipose ECs were plated in EBM2 with 2% serum, pulsed with 5 μM BrdU for 16 h, immunostained and imaged using a confocal Leica SP5 microscope. Cellular senescence was characterized using a SA-β galactosidase assay kit (cell signaling) or anti-P16^INK4A staining. The specificity of P16^INK4A staining was confirmed by 2nd Ab alone staining (Supplementary FIG. 1D). The microscopic images were analyzed on at least five images using imageJ software (NIH) and the same contrast and brightness were used to compare the images.
Microcontact printing system—Stamps were created using soft lithography as described previously. Polydimethylsiloxane (PDMS) stamps were made by casting the polymer against master molds made by standard photolithography using the negative photoresist SU-8 (MicroChem). […]

In test [4] the test system is aged human adipose ECs. Kind of test: Mouse subcutaneous fibrin gel implantation (blood vessel formation and dextran leakage). In kind it is in vivo, NSG mouse. As to the method: as §3
Mouse subcutaneous fibrin gel implantation—The in vivo animal study was carried out in strict accordance with the recommendations in the Guide for the Care and Use of Laboratory Animals of the National Institutes of Health. The protocol was reviewed and approved by the Animal Care and Use Committee of Medical College of Wisconsin. NOD scid gamma (NSG) mice (8 week old; Jackson Laboratory) and C57BL6 mice (Jackson Laboratory and NIA/NIH rodent colonies) were used for the study. Fibrin gel was fabricated as described. […] Vascular network formation of GFP-labeled human adipose ECs was evaluated by measuring the area and length of GFP-labeled blood vessels from five different areas of the gel. The vascular permeability was measured using low MW fluorescently labeled dextran (MW 4000, Sigma) leakage. […]

The subject of test [5] is YAP1. Kind of test: Immunoblot of YAP1S127 phosphorylation in aged human adipose ECs treated with ML141. In kind it is cell-based. Particulars: ML141 500 nM, compared to those without ML141 treatment.
Source text: as §1, §2
For orientation: A western blot detects proteins with antibodies after separation by electrophoresis.

T1 sequence (P60953 whole entry): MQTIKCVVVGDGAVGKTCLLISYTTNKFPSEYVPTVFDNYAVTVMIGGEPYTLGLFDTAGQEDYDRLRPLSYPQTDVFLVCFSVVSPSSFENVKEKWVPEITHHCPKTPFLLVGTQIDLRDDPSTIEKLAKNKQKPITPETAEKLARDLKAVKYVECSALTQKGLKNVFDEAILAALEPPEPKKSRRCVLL

Take `COc1ccc(C2CC(c3ccccc3)=NN2c2ccc(S(N)(=O)=O)cc2)cc1` (stereo not drawn) [ML141]: the “CDC42 activity (GTP-CDC42 integrated density)” value in test [1] is on record as “Inhibition of CDC42 activity”. In addition, the “levels of nuclear YAP1, times higher” value in test [2] is 1.2 times. For the same compound, in test [3], the “intensity of senescence marker p16INK4A, lower” value worked out at 45%. Moreover, the “aged EC-derived blood vessel length, times longer” value in test [4] (fibrin gel with aged human adipose ECs, ML141 500 nM in gel, subcutaneous in NSG mouse, 7 days) turned out to be 2.5 times. The “leakage of fluorescently labeled dextran in the gel” value in test [4] (gel with aged ECs, ML141 500 nM, dextran by systemic injection) is “attenuated the leakage of dextran”. In test [5], the “decrease in YAP1S127 phosphorylation” value turned out to be 72%.
